Each structure is given as a SMILES string.

The target in this assay is 15-PGDH (Homo sapiens (Human), UniProt P15428). Nature of the assay: Assay for the activities of 15-PGDH inhibitors (formation of NADH at 340 nm). The class given is biochemical. The conditions noted are these: purified 15-PGDH enzyme, 21 μM PGE2, 0.25 mM NAD+, pH 7.5; concentration inhibiting 50% of 15-PGDH activity. How it is done: <1-1> Expression and Purification of 15-PGDH
Chain of 15-PGDH (P15428 whole entry): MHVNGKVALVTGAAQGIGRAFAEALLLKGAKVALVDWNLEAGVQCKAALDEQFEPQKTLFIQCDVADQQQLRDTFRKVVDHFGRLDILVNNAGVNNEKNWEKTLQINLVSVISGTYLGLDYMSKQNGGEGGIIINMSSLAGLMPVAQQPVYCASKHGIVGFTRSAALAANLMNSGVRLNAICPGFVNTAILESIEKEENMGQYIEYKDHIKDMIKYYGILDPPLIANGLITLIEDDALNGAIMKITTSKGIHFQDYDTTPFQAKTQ
A 15-PGDH cDNA plasmid containing BamHI and EcoRI sites of the pGES-2T expression vector was used to transform Escherichia coli BL-21 lysS in accordance with the ordinarily used in the art. The transformed cells were grown in 500 mL LB medium containing 50 μg/mL ampicillin at 37° C. while being stirred at 220 rpm until the OD600 reached 0.6. Isopropyl β-D-thiogalactoside (1 mM) was added and the cells were allowed to grow for 12 hours at 25° C. Then, the pellets were harvested by centrifugation at 4000×g for 30 minutes at 4° C. The cell pallets were resuspended in 20 mL cell lysis buffer (1×PBS buffer (pH 7.4) containing 1 mM EDTA and 0.1 mM DTT) and sonicated (14×10 s at 4° C.). The disrupted cells were centrifuged at 4000×g for 20 minutes at 4° C. The supernatant was loaded slowly on a glutathione-sepharose 4B column, which was equilibrated at 4° C. with a cell lysis buffer (1×PBS buffer (pH 7.4) containing 1 mM EDTA and 0.1 mM DTT). The column was washed with the lysis buffer until OD280 reached below 0.005. Then, 15-PGDH was eluted from the glutathione-sepharose 4B column at room temperature for 5 minutes by using the elution buffer (50 mM Tris-HCl (pH 8.0) containing 10 mM reduced glutathione, 1 mM EDTA and 0.1 mM DTT). The concentration and the purity of the purified enzyme were determined by SDS-PAGE.
<1-2> Assay for the Activities of 15-PGDH Inhibitors
The absorbance of the reaction mixture was recorded at 340 nm so that the activities of the derivatives according to the present invention as 15-PGDH inhibitors were determined from a standard curve prepared from the absorbance of various concentrations of NADH at 340 nm.
On to `O=C1NC(=O)C(Cc2ccc(OCC3CCCCC3)c(Cl)c2)S1` (stereo not drawn), for which half-maximal inhibition (IC50) was put at 526 nM.

As for `O=C1NC(=O)C(Cc2ccc(OCC3CCCCC3)c(Cl)c2)S1` (single isomer, unassigned), the IC50 (usually the concentration needed to halve the response being measured) stood at 125 nM.

Compound `CC(C)OCCOc1ccc(/C=C2\SC(=O)NC2=O)cc1` [Derivative 1, 5-(4-(2-isopropoxyethoxy)benzylidene)thiazolidine-2,4-dione] showed an IC50 of 961 nM. This IC50 lies about 7.7-fold higher than the previous one.

Compound `O=C1NC(=O)/C(=C/c2ccc(OCCN3CCOCC3)cc2)S1` [Derivative 2, 5-(4-(2-morpholinoethoxy)benzylidene)thiazolidine-2,4-dione] gave an IC50 of 515 nM.

With `O=C1NC(=O)/C(=C/c2ccc(OCCc3cccs3)cc2)S1` [Derivative 3, 5-(4-(2-(thiophen-2-yl)ethoxy)benzylidene)thiazolidine-2,4-dione], inhibition was half-maximal at 95.9 nM (IC50).

In turn, `O=C1NC(=O)/C(=C/c2ccc(OCCc3ccsc3)cc2)S1` [Derivative 4, 5-(4-(2-(thiophen-3-yl)ethoxy)benzylidene)thiazolidine-2,4-dione] returned an IC50 of 148 nM.

The compound `O=C1NC(=O)/C(=C/c2ccc(OCCN3CCS(=O)(=O)CC3)cc2)S1` [Derivative 5, 5-[4-(2-thiomorpholine-1,1-dioxideethoxy)benzylidene]thiazolidine-2,4-dione] registered a 50% inhibitory concentration (IC50) of 1370 nM.

For `O=C1NC(=O)/C(=C/c2ccc(OCCc3ccccn3)cc2)S1` [Derivative 6, 5-(4-(2-(pyridin-2-yl)ethoxy)benzylidene)thiazolidine-2,4-dione], the IC50 was 592 nM. This IC50 is about 2.3-fold lower than that of the compound before.

Compound `O=C1NC(=O)/C(=C/c2ccc(OCCNC3CCCCC3)cc2)S1` [Derivative 7, 5-(4-(2-(cyclohexylamino)ethoxy)benzylidene)thiazolidine-2,4-dione] came in with an IC50 of 2610 nM.

`COc1cc(/C=C2\SC(=O)NC2=O)ccc1OCCC1CCCCC1` [Derivative 8, 5-(4-(2-cyclohexylethoxy)-3-methoxybenzylidene)thiazolidine-2,4-dione] registered an IC50 of 23 nM. Against the preceding compound, the IC50 is about 110-fold lower.

`Cc1cc(/C=C2\SC(=O)NC2=O)ccc1OCCC1CCCCC1` [Derivative 9, 5-(4-(2-cyclohexylethoxy)-3-methylbenzylidene)thiazolidine-2,4-dione] yielded an IC50 of 55 nM.

`COc1cc(/C=C2\SC(=O)NC2=O)cc(OC)c1OCCC1CCCCC1` [Derivative 10, 5-(4-(2-cyclohexylethoxy)-3,5-dimethoxybenzylidene)thiazolidine-2,4-dione]: the IC50 amounted to 94.5 nM. Compared with the last compound, the IC50 is about 1.7-fold higher.

For the compound `O=C1NC(=O)/C(=C/c2ccc(OCCC3CCCCC3)c(Cl)c2)S1` [Derivative 11, 5-(3-chloro-4-(2-cyclohexylethoxy)benzylidene)thiazolidine-2,4-dione], the IC50 worked out at 7.2 nM.

As to `O=C1NC(=O)/C(=C/c2ccc(OCCCC3CCCCC3)c([N+](=O)[O-])c2)S1` [Derivative 12, 5-(4-(3-cyclohexylpropoxy)-3-nitrobenzylidene)thiazolidine-2,4-dione], the IC50 is 327 nM. Against the preceding compound, the IC50 is about 45-fold higher.

For `O=C1NC(=S)/C(=C/c2ccc(OCCC3CCCCC3)cc2)S1` [Derivative 13, 5-(4-(2-cyclohexylethoxy)benzylidene)-4-thioxothiazolidin-2-one], the IC50 came to 689 nM.

The compound `O=C1NC(=O)/C(=C/c2ccc(OCCN3CCCCC3)cc2)S1` [Derivative 14, 5-(4-(2-(piperidin-1-yl)ethoxy)benzylidene)thiazolidine-2,4-dione] displayed an IC50 of 1430 nM. Compared with the last compound, the IC50 is about 2.1-fold higher.

As to `O=C1NC(=O)/C(=C/c2ccc(OCCC3CCCCC3)c(Br)c2)S1` [Derivative 15, 5-(3-bromo-4-(2-cyclohexylethoxy)benzylidene)thiazolidine-2,4-dione], the 50% inhibitory concentration (IC50) is 6.6 nM.

Compound `O=C1NC(=O)/C(=C/c2ccc(OCCC3CCCCC3)c(C(F)(F)F)c2)S1` [Derivative 16, 5-(4-(2-cyclohexylethoxy)-3-(trifluoromethyl)benzylidene)thiazolidine-2,4-dione] yielded an IC50 of 71.9 nM.

In turn, `O=C1NC(=O)/C(=C/c2ccc(OCCC3CCCCC3)cc2Cl)S1` [Derivative 18, 5-(2-chloro-4-(2-cyclohexylethoxy)benzylidene)thiazolidine-2,4-dione] showed an IC50 of 19.6 nM.

Compound `Cc1ncsc1CCOc1ccc(/C=C2\SC(=O)NC2=O)cc1` [Derivative 19, 5-(4-(2-(4-methylthiazol-5-yl)ethoxy)benzylidene)thiazolidine-2,4-dione] registered an IC50 of 1170 nM. This IC50 lies about 60-fold higher than the previous one.

For `O=C1NC(=O)/C(=C/c2ccc(OCCC3CCCCC3)c(F)c2)S1` [Derivative 20, 5-(4-(2-cyclohexylethoxy)-3-fluorobenzylidene)thiazolidine-2,4-dione], the IC50 is 50.8 nM. This IC50 lies about 23-fold lower than the previous one.

Compound `O=C1NC(=O)/C(=C/c2ccc(OCCCN3CCS(=O)(=O)CC3)cc2)S1` [Derivative 21, 5-[4-(3-thiomorpholine-1,1-dioxidepropoxy)benzylidene]-thiazolidine-2,4-dione] gave an IC50 of 3040 nM.

The compound `O=C1NC(=O)/C(=C/c2ccc(OCc3cccs3)cc2)S1` [Derivative 22, 5-(4-(thiophen-2-ylmethoxy)benzylidene)thiazolidine-2,4-dione] registered an IC50 of 251 nM.

`O=C1NC(=O)/C(=C/c2ccc(OCc3ccsc3)cc2)S1` [Derivative 23, 5-(4-(thiophen-3-ylmethoxy)benzylidene)thiazolidine-2,4-dione] came in with an IC50 of 392 nM.

Compound `O=C1NC(=O)/C(=C/c2ccc(OCCC3CCCC3)cc2)S1` [Derivative 24, 5-(4-(2-cyclopentylethoxy)benzylidene)thiazolidine-2,4-dione] came in with an IC50 of 115 nM.

`O=C1NC(=O)/C(=C/c2ccc(OCc3ccco3)cc2)S1` [Derivative 25, 5-(4-(furan-2-ylmethoxy)benzylidene)thiazolidine-2,4-dione] yielded an IC50 of 1880 nM. This IC50 lies about 16-fold higher than the previous one.

For the compound `Cc1ccc(COc2ccc(/C=C3\SC(=O)NC3=O)cc2)cc1` [Derivative 27, 5-(4-(4-methylbenzyloxy)benzylidene)thiazolidine-2,4-dione], the IC50 stood at 255 nM.

Compound `COc1ccc(COc2ccc(/C=C3\SC(=O)NC3=O)cc2)cc1` [Derivative 28, 5-(4-(4-methoxybenzyloxy)benzylidene)thiazolidine-2,4-dione] yielded a 50% inhibitory concentration (IC50) of 728 nM. This IC50 is about 2.9-fold higher than that of the compound before.

In the case of `O=C1NC(=O)/C(=C/c2ccc(OCc3ccc4c(c3)OCO4)cc2)S1` [Derivative 29, 5-(4-(benzo[d][1,3]dioxol-5-ylmethoxy)benzylidene)thiazolidine-2,4-dione], the 50% inhibitory concentration (IC50) stood at 310 nM.

`O=C1NC(=O)/C(=C/c2ccc(OC3CCCCC3)c(Cl)c2)S1` [Derivative 30, 5-(3-chloro-4-(cyclohexyloxy)benzylidene)thiazolidine-2,4-dione]: half-maximal inhibition (IC50) was put at 48.9 nM. Against the preceding compound, the IC50 is about 6.3-fold lower.

Consider `O=C1NC(=O)/C(=C/c2ccc(OCC3CCCCC3)c(Cl)c2)S1` [Derivative 31, 5-(3-chloro-4-(cyclohexylmethoxy)benzylidene)thiazolidine-2,4-dione], for which the IC50 turned out to be 26.9 nM.

Consider `O=C1NC(=O)/C(=C/c2ccc(OCCCC3CCCCC3)c(Cl)c2)S1` [Derivative 32, 5-(3-chloro-4-(3-cyclohexylpropoxy)benzylidene)thiazolidine-2,4-dione], for which the IC50 is 10.3 nM. This IC50 is about 2.6-fold lower than that of the compound before.

On to `O=C1NC(=O)/C(=C/c2ccc(OCCCCC3CCCCC3)c(Cl)c2)S1` [Derivative 33, 5-(3-chloro-4-(4-cyclohexylbutoxy)benzylidene)thiazolidine-2,4-dione], for which the midpoint of inhibition, the IC50, lay at 26.3 nM.

The values are drawn from US8637558B2 (Industry-Academic Cooperation Foundation, Chosun University, priority 2008, dated 2014).
